Data published in US10092517B2, “Gelated microparticle suitable for oral delivery of therapeutic peptides to the lower intestine” (Insucaps Limited, priority 2015, dated 2018).

Test system: isolated rat colonic mucosae
Experiment: TEER and Papp of [14C]-mannitol in isolated rat colonic mucosae mounted in Ussing chambers
Type: in vitro ADME
Protocol: Ussing Chambers allow the measurement of transport molecules from the apical side of a section of intestinal tissue (rodent) to the basolateral, thereby simulating passage across the gut wall in vivo. […] Their ability to improve intestinal permeability was testing in isolated rat colonic mucosae by measurement of transepithelial electrical resistance (TEER) and permeability of [14C]-mannitol. The permeability of the marker molecule, radioactively labelled sugar ([C14]-Mannitol) was calculated by scintillation counting.
The transepithelial potential difference (PD, mV) is measured in the open circuit configuration after which the tissue is voltage clamped to zero PD by insertion of the required short circuit current (Isc, μA cm^−2) by means of an automatic voltage clamp (EVC-4000 amplifier, WPI, UK).
Isc and PD are alternatively monitored by switching to open circuit conditions for 3 s every 30 s using a timer (Pro-4, WPI, UK). Analogue data was digitised with a Powerlab® data acquisition unit and analyzed with Chart® software package (AD instruments, UK).
Following an equilibration period of 45 min, baseline PD and Isc are measured and TEER (Ω cm^2) is calculated according to Ohm's law.
Transport of radiolabelled mannitol from the apical chamber to the basolateral chamber was used to measure intestinal permeability.
Following addition of [^14C]-mannitol (0.2 μCi) to the apical chamber flux is monitored periodically over two hours by sampling the serosal chamber (100 μL) every 20 minutes for two hours, and apically (100 μL) at time zero, replenishing with fresh KH buffer at each sampling point.
Samples containing [^14C]-mannitol were mixed with scintillation fluid and read in a scintillation analyzer (Packard Tricarb 2900 TR).
The apparent permeability coefficient (Papp) for mannitol and FD4 is calculated according to the equation; Papp (cm/s)=(dQ/dt) (1/AC0), where dQ/dt is the transport rate (mol/s); A is the surface area of the monolayer (cm^2), and C0 is the initial concentration in the donor compartment (mol/mL).

Compound | TEER (10, 25 and 50 mg of TCA added to the encapsulation system) | enhancement of mannitol flux (25 mg Vitamin B12 in encapsulation systems) | TEER (Vitamin B12 in encapsulation systems, over 2 hours)
C[C@H](CCC(=O)NCCS(=O)(=O)O)[C@H]1CC[C@H]2[C@@H]3[C@H](O)C[C@@H]4C[C@H](O)CC[C@]4(C)[C@H]3C[C@H](O)[C@]12C [TCA, taurocholic acid] | reduced TEER |  | 
cyanocobalamin [Vitamin B12] |  | 11.5 fold | significantly reduced TEER
